What was measured:
human HPK1 (MAP4K1) = biological target: T1, human HPK1 (MAP4K1) (Homo sapiens, UniProt Q92918); assay: HPK1 inhibition assay (indirect ELISA); assay type: biochemical; conditions: GST-HPK1 0.6 nM, 12 μM ATP; read-out: IC50 Range HPK1
T1 construct: human HPK1 (aa 1-346); purchased Invitrogen PV6355
T1 sequence (Q92918 1-346): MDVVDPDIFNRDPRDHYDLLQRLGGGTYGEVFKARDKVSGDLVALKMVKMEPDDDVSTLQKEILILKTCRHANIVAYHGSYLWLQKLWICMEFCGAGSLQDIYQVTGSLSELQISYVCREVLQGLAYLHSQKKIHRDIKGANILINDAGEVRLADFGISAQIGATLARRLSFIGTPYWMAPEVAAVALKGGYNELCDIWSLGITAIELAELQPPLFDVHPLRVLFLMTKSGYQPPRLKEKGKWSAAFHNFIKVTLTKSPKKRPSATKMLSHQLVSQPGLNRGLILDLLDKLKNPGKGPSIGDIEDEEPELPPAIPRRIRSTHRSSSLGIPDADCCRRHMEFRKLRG
Outline: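 GST-tagged human HPK1 (aa 1-346, 0.6 nM) phosphorylated MBP-coated wells with 12 μM ATP in MOPS pH 7.2/Mg2+ buffer for 30 min after 15-min compound preincubation; phospho-Thr detected by antibody ELISA with TMB, 450 nm. Tested at 10 μM or 10-point titration (typically 50-0.1 μM); IC50 by 4-parameter logistic fit.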

CT26 WT colon carcinoma = assay: Syngeneic CT26 cell line xenograft model; assay type: in vivo; conditions: for Survival (tumour size <1500 mm^3 at day 21): 8 animals
Procedure: Six to eight week old female BALB/c mice were purchased from Jackson Laboratories and received and acclimated at the MaRS-TMDT Animal Resources Centre for 1 week prior to the start of the experiment. […] Mice were housed in microisolator cages and maintained in an environment with a 12 h light cycle at 20-22° C. and 40-60% humidity. On the day of implantation, CT26 cells were harvested and re-suspended with serum free RPMI1640 to a concentration of 1×10^7/mL and each mouse was injected subcutaneously with a volume of 0.1 mL containing 1×10^6 CT26 cells in the right rear flank. […] Toxicity was evaluated by body weight measurements and clinical observations. Tumour measurements and body weights were taken three times per week.
According to University Health Network (UHN) Animal Use Protocols (AUPs), mice in efficacy experiments should be sacrificed when the tumour size is above 1500 mm^3 or if the bodyweight of the animal decreases or if the animals are displaying clinical signs that require termination for humane reasons. […] A tumour size of <1500 mm^3 at day 21 was used as a cutoff to represent survival.

FLT3 = biological target: T2, FLT3 (Homo sapiens, UniProt P36888); assay: FLT3 inhibition, FRET based Z'-LYTE Kinase Assay; assay type: biochemical; conditions: 1 nM FLT3, 940 μM ATP; read-out: IC50 Range Flt3
T2 construct: purchased Invitrogen PV3182
T2 sequence (P36888 27-993): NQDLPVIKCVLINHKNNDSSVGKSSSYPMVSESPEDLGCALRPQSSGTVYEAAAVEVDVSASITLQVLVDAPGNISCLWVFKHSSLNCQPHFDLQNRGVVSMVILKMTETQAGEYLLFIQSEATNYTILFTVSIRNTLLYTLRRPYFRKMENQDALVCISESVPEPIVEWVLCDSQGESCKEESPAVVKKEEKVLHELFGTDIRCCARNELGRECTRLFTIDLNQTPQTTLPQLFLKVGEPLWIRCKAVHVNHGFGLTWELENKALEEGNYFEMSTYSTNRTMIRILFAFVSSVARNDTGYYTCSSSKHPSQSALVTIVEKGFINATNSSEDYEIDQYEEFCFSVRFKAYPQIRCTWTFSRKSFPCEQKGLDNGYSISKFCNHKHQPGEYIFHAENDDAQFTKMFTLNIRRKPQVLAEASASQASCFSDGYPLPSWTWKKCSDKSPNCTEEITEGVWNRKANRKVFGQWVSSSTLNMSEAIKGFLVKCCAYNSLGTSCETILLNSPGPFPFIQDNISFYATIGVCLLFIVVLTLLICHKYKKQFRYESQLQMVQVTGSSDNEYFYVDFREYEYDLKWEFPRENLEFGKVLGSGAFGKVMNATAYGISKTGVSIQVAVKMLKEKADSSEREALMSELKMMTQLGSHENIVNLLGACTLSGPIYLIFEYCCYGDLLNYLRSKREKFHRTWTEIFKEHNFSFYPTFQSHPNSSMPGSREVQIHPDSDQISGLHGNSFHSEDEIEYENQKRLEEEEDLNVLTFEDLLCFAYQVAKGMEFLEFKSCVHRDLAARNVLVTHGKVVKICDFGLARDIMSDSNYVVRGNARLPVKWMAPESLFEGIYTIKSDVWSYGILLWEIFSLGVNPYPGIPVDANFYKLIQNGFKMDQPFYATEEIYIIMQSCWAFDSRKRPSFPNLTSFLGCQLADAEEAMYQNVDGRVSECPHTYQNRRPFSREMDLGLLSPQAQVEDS
Procedure: FLT3 and LCK compound inhibition were determined using FRET based Z′-LYTE Kinase Assay Kit with Tyrosine 2 peptide as the substrate (Invitrogen cat #PV3191). […] The % inhibition values were determined according to the manufacturer's directions and IC50 values were obtained using a non-linear 4 point logistic curve fit (XLfit4, IDBS).

Compound: CN1CCN(c2ccc3nc(-c4c(N)c5ccsc5[nH]c4=O)[nH]c3c2)CC1 [Example A1, 4-amino-5-(6-(4-methylpiperazin-1-yl)-1H-benzo[d]imidazol-2-yl)thieno[2,3-b]pyridin-6(7H)-one]
- IC50 (human HPK1 (MAP4K1)): ≤ 0.05 µM
- Tumour growth inhibition (TGI) (CT26 WT colon carcinoma; 75 mg/kg QD PO for 21 days, day 21, BALB/c mice): 44%
- Survival (tumour size <1500 mm^3 at day 21) (CT26 WT colon carcinoma; 75 mg/kg/day Example A1 arm): 25%
- Tumour growth inhibition (TGI) (CT26 WT colon carcinoma; 150 mg/kg QD PO Example A1 combined with 150 μg anti-PD-1 antibody IP day 0, 3, 6 and 10, day 21): 86%
- Tumour growth inhibition (TGI) (CT26 WT colon carcinoma; 150 mg/kg QD PO for 21 days, day 21, BALB/c mice): 64%
- Survival (tumour size <1500 mm^3 at day 21) (CT26 WT colon carcinoma; 150 mg/kg/day Example A1 and anti-PD-1 arm): 87.5%
- Survival (tumour size <1500 mm^3 at day 21) (CT26 WT colon carcinoma; 150 mg/kg/day Example A1 arm): 37.5%
- Tolerability (body weight, clinical signs) (CT26 WT colon carcinoma; 75 and 150 mg/kg QD PO 21 days, BALB/c mice, all animals gaining weight, none terminated due to clinical signs): well tolerated
- IC50 (FLT3): ≤ 0.05 µM
